Assay results: US10286079B2, “Modified cytotoxins and their therapeutic use” (The Regents of the University of California, priority 2015, dated 2019)

Key:
HeLa cells = test: In vitro cytotoxicity, CellTiter Blue cell viability; format: cell-based; details: 3 days
Protocol: HeLa cells were obtained from ATCC and incubated at 37° C. at 5% CO2 using DMEM supplemented with 10% FBS, and 1× of sodium pyruvate, non-essential amino acids, L-glutamine and antibiotics.
Cytotoxicity of compounds was evaluated using the CellTiter Blue assay (Promega). HeLa cells were plated in 96-well plates, at a density of 3000 cells/well 1 day before treatment. Treatments were prepared as 1000× serial stock dilutions in DMSO, then diluted into media for 1×, 0.1% DMSO treatment solutions. Plating media was removed, then treatments were added to the wells. After 3 days, the media was removed and replaced with 100 uL complete DMEM without phenol red. Then 20 uL of CellTiter Blue reagent was added, and the plates incubated for two hours at 37° C. Fluorescence was measured at 590 nm with excitation at 560 nm. To determine viability, average background fluorescence was subtracted from average fluorescence readings of the experimental wells (three wells per treatment concentration). Viability was calculated as the average background-subtracted signal in a well compared to that of a negative control well (treatment with 0.1% DMSO/media).
Viabilities were fit in GraphPad Prism using a non-linear, dose-dependent inhibition curve. The IC50 numbers given in the table reflect the concentration at which the cell death is 50% of the maximum response.

HSA = HSA (Homo sapiens, UniProt P02768); test: in vitro; format: in vitro ADME; details: HSA (human serum albumin), read-out: % bound to protein (converted); for fraction unbound at 1.5 μM: concentration 1.5 μM; for fraction unbound at 3 μM: concentration 3.0 μM
Chain of HSA (P02768 25-609): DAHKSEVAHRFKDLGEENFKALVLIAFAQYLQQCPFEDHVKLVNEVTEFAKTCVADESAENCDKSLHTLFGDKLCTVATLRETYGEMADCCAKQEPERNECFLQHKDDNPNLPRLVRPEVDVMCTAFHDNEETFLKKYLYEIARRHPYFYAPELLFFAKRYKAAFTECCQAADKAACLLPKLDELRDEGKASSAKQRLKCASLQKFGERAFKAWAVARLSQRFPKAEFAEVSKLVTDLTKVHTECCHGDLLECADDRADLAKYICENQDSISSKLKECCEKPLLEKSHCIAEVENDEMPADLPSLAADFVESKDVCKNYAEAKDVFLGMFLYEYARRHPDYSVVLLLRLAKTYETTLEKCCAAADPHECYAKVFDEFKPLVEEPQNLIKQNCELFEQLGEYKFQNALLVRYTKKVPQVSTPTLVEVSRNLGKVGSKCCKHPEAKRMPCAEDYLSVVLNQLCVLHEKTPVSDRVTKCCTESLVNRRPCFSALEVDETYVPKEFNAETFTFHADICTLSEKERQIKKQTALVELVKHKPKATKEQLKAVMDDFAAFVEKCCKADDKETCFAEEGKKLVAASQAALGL
Protocol: Using a dialysis-based protein binding assay according to the method described in Cohen, Plasma Protein-Binding Methods in Drug Discovery in OPTIMIZATION IN DRUG DISCOVERY: IN VITRO METHODS, Yan & Caldwell, eds., pp. 111-122 (Humana Press, Totowa, N.J., 2004), which is hereby incorporated by reference as though set forth herein in its entirety. The percentage of PTX-FA18 and the percentage of octadecanedioic acid (C18 Diacid) bound to the protein at different concentrations was measured.

[1] = Homo sapiens, 72 h, average of at least 3 replicates

Question: Which IC50 (HeLa cells; [1]) does the source give for CC(=O)O[C@H]1C(=O)[C@@]2(C)[C@H]([C@H](OC(=O)c3ccccc3)[C@]3(O)C[C@H](OC(=O)[C@H](OC(=O)CCCCCCC/C=C/CCCCCCCC(=O)O)[C@@H](NC(=O)c4ccccc4)c4ccccc4)C(C)=C1C3(C)C)[C@]1(OC(C)=O)CO[C@@H]1C[C@@H]2O [PTX-FAu18, Paclitaxel-uC18 Diacid Conjugate] here?
Answer: 40.1 nM

Question: Which IC50 (HeLa cells; Homo sapiens, 72 h, one experiment (*)) does the source give for COC(=O)CCCCCCCCCCCCCCCCC(=O)NCCCCCC(=O)O[C@@H](C(=O)O[C@H]1C[C@@]2(O)[C@@H](OC(=O)c3ccccc3)[C@@H]3[C@]4(OC(C)=O)CO[C@@H]4C[C@H](O)[C@@]3(C)C(=O)[C@H](OC(C)=O)C(=C1C)C2(C)C)[C@@H](NC(=O)c1ccccc1)c1ccccc1 [PTX-FAE18-Aa, Paclitaxel-C18 Diacid Conjugate+Amino Acid Spacer] here?
Answer: 2330 nM

Question: Which IC50 (HeLa cells; average of at least 3 replicates) does the source give for “Methotrexate-C18 Diacid Conjugate [MTX-FA18]” here?
Answer: 3010 nM

Question: CC(=O)O[C@H]1C(=O)[C@@]2(C)[C@H]([C@H](OC(=O)c3ccccc3)[C@]3(O)C[C@H](OC(=O)[C@H](OC(=O)CCCCCCCCCCCCCCC(=O)O)[C@@H](NC(=O)c4ccccc4)c4ccccc4)C(C)=C1C3(C)C)[C@]1(OC(C)=O)CO[C@@H]1C[C@@H]2O [PTX-FA16, Paclitaxel-C16 Diacid Conjugate] was tested. Which IC50 (HeLa cells; [1]) did it give?
Answer: 137 nM

Question: Which fraction unbound at 1.5 μM (HSA) does the source give for CC(=O)O[C@H]1C(=O)[C@@]2(C)[C@H]([C@H](OC(=O)c3ccccc3)[C@]3(O)C[C@H](OC(=O)[C@H](OC(=O)CCCCCCCCCCCCCCCCC(=O)O)[C@@H](NC(=O)c4ccccc4)c4ccccc4)C(C)=C1C3(C)C)[C@]1(OC(C)=O)CO[C@@H]1C[C@@H]2O [PTX-FA18, Paclitaxel-C18 Diacid Conjugate] here?
Answer: 0.005

Question: And the fraction unbound at 3 μM (HSA)?
Answer: 0.003

Question: What about the IC50 (HeLa cells; [1]) of the same molecule?
Answer: 64.4 nM

Question: For O=C(O)CCCCCCCCCCCCCCCCC(=O)O [C18 Diacid, octadecanedioic acid], which fraction unbound at 1.5 μM (HSA) is on record?
Answer: 0.009

Question: And the fraction unbound at 3 μM (HSA)?
Answer: 0.002

Question: And the fraction unbound at 20 μM (HSA; concentration 20.0 μM)?
Answer: 0.026

Question: For CC(=O)O[C@H]1C(=O)[C@@]2(C)[C@H]([C@H](OC(=O)c3ccccc3)[C@]3(O)C[C@H](OC(=O)[C@H](OC(=O)CCCCCCCCCCCCCCCCCCC(=O)O)[C@@H](NC(=O)c4ccccc4)c4ccccc4)C(C)=C1C3(C)C)[C@]1(OC(C)=O)CO[C@@H]1C[C@@H]2O [PTX-FA20, Paclitaxel-C20 Diacid Conjugate], which IC50 (HeLa cells; [1]) is on record?
Answer: 27.8 nM

Question: With CC[C@@]1(OC(=O)CCCCCCCCCCCCCCCCC(=O)O)C(=O)OCc2c1cc1n(c2=O)Cc2cc3ccccc3nc2-1 [CPT-FA18, Camptothecin-C18 Diacid Conjugate] as the molecule, how does the IC50 (HeLa cells; [1]) read?
Answer: 11000 nM
